Data from ChEMBL document CHEMBL1158047, “Lanostane triterpenoids from the Sri Lankan basidiomycete Ganoderma applanatum” (2006).

Tested on: P388
Assay: Cytotoxicity against mouse P388 cells
Type: functional

SMILES	Activity
CC(C)=CCC[C@@H](C(=O)O)[C@H]1[C@H](O)C[C@@]2(C)C3=CC[C@H]4C(C)(C)C(=O)CC[C@]4(C)C3=CC[C@]12C	237 µM
CC(C)=CCC[C@@H](C(=O)O)[C@H]1[C@H](O)C[C@@]2(C)C3=CC[C@H]4C(C)(C)[C@H](O)CC[C@]4(C)C3=CC[C@]12C	>125 µg/mL
C=C(C(=O)C[C@@H](C)[C@H]1CC[C@@]2(C)C3=C(CC[C@]12C)[C@@]1(C)CC[C@@H](OC(=O)CC(=O)O)C(C)(C)[C@@H]1CC3)C(C)C(=O)O (stereo not given in full)	>125 µg/mL
CC(C(=O)O)[C@@H](C)C(=O)C[C@@H](C)[C@H]1CC[C@@]2(C)C3=C(CC[C@]12C)[C@@]1(C)CC[C@@H](OC(=O)CC(=O)O)C(C)(C)[C@@H]1CC3 (stereo not given in full) [CARBOXYACETYLQUERCINIC ACID]	>125 µg/mL
C/C(=C\CC[C@@H](C(=O)O)[C@H]1[C@H](O)C[C@@]2(C)C3=CC[C@H]4C(C)(C)[C@H](O)CC[C@]4(C)C3=CC[C@]12C)CO	>125 µg/mL
